Experimental data from EP1974751A1, “Formulations for non-steroidal anti-inflammatory drugs” (The Jordanian Pharmaceutical Manufacturing Co., priority 2007, dated 2008).

SMILES: OC[C@H]1O[C@@H]2O[C@H]3[C@H](O)[C@@H](O)[C@@H](O[C@H]4[C@H](O)[C@@H](O)[C@@H](O[C@H]5[C@H](O)[C@@H](O)[C@@H](O[C@H]6[C@H](O)[C@@H](O)[C@@H](O[C@H]7[C@H](O)[C@@H](O)[C@@H](O[C@H]8[C@H](O)[C@@H](O)[C@@H](O[C@H]1[C@H](O)[C@H]2O)O[C@@H]8CO)O[C@@H]7CO)O[C@@H]6CO)O[C@@H]5CO)O[C@@H]4CO)O[C@@H]3CO [β-cyclodextrin]
- optimal solubility of β-cyclodextrin (distilled water): 20 mM
- β-cyclodextrin solubility (water): 230 mM
